From publication PMC10321224 (RSC Advances, 2023) come the findings set out here.

Assay [1] relates to MDA-MB-231 (triple-negative breast cancer cells). As to the kind of experiment: Resazurin antiproliferative assay, MDA-MB-231 cells. The class given is cell-based, human. The conditions noted are these: towards HFF-1 cell lines. (In general: Resazurin is reduced to fluorescent resorufin, in cell work by metabolically active cells.)
The test system of assay [2] is DU-145 (hormone-refractory prostate cancer cells). As to the kind of experiment: Resazurin antiproliferative assay, DU-145 cells. The class given is cell-based, human. To be noted: towards HFF-1 cell lines.

Molecules are shown by their SMILES. A value given as a limit tells only on which side of the number the result lay.

Take `C[C@@H]1C[C@H](c2ccc(Br)cc2)c2c(cc3ccccn23)C(=O)O1` (racemic) [cis-4d]: the “Selectivity index (SI = CC50/IC50) HFF-1/MDA-MB-231” value in assay [1] was 0.06. Besides, the “Selectivity index (SI = CC50/IC50) HFF-1/DU-145” value in assay [2] is 0.03.

In the case of `COc1cc(OC)cc([C@H]2C[C@@H](C)OC(=O)c3cc4ccccn4c32)c1` (racemic) [cis-4f], in assay [1], the “Selectivity index (SI = CC50/IC50) HFF-1/MDA-MB-231” value was greater than 5. The “Selectivity index (SI = CC50/IC50) HFF-1/DU-145” value in assay [2] is greater than 2.
